Test results reported in patent publication US9382254B2, “Compounds and pharmaceutical compositions thereof for the treatment of cystic fibrosis” (Galapagos NV, priority 2013, dated 2016).

What was measured:
Format in all cases: cell-based
[1] = molecular target: T1, CFTR ΔF508 mutant (Homo sapiens, UniProt P13569, DEL508-508); assay: YFP-halide influx assay for the CFTR-ΔF508 mutation (384 well, FDSS/μCell); settings: CFBE41o- cells, CFTR-ΔF508, 1×D-PBS, fluorescence after 36 seconds
T1 construct: expressed in transfected cells; host or cells: CFBE41o- (adenoviral transduction)
Method in brief: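 Potentiator read-out as 1−F/F0, F taken 36 s after iodide addition, EC50 fitted against compound concentration. Cells: CFBE41o- expressing ΔF508 CFTR plus halide-sensitive YFP via adenovirus, rescued by 27 °C for 24 h or 24 h modulator at 37 °C.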

[2] = molecular target: T2, CFTR G551D mutant (Homo sapiens, UniProt P13569, G551D); assay: YFP-halide influx assay for the CFTR-G551D mutation; settings: HEK293 cells, forskolin 10.67 μM
T2 construct: expressed in transfected cells; host or cells: HEK293 (reverse transfection with plasmid)
Method in brief: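 HEK293 cells reverse-transfected with CFTR G551D and YFP H148Q/I152L/F47L halide sensor, expressed 24 h at 37 °C. Iodide-induced fluorescence quench recorded 7 s after I− injection; response = 1−F/F0, with EC50 from plot against compound concentration.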

[3] = molecular target: T3, CFTR-G178R (Homo sapiens, UniProt P13569, G178R); assay: YFP-halide influx assay for the CFTR-G178R
T3 construct: expressed in transfected cells
From the text: (§1) The YFP halide influx assay measures the functionality of the cystic fibrosis Transmembrane Conductance regulator (CFTR) channels. The assay is used to evaluate the capacity of compounds to increase the channel opening of existing mutant CFTR channels in the membrane. It makes use of the observation that the yellow fluorescent protein (YFP) variant YFP H148Q, I152L, […] has its fluorescence substantially quenched by halide ions like Cl^− and I^−. (Galietta, Haggie, & Verkman, 2001)
(§2) For this purpose, HEK293-cells are seeded in 96 well plates. During seeding, the cells are reverse-transfected with plasmid vectors that direct the expression of the CFTR G551D mutant and of the YFP reporter. Cells are incubated at 37° C., 5% CO2 for 24 hours so as to allow for sufficient expression of the CFTR protein.
(§3) The I^−-induced quenching of fluorescence is recorded immediately after injection of I^− for 7 seconds. The capacity of a compound to increase the channel opening is directly correlated with the decrease in fluorescence, and is expressed as (1-(fluorescence after 7 seconds (F)/fluorescence before injection (F0))) and an EC50 can be derived from a (1-F/F0) vs compound concentration plot.
(§4) Similar YHA assays were developed for other channel gating defective or channel conductance defective CFTR mutants to determine effect of compound on channel activity. Examples of mutants are G178R, G1349D, S549N, R117H, R334W. This assay is also used for additional class I CFTR mutants, including G542X, W1282X; class II mutants including N1303K, and for class III mutants including S1251N.

[4] = molecular target: T4, CFTR-G1349D (Homo sapiens, UniProt P13569, G1349D); assay: YFP-halide influx assay for the CFTR-G1349D
T4 construct: expressed in transfected cells
From the text: as §1, §2, §3, §4

[5] = molecular target: T5, CFTR-S549N (Homo sapiens, UniProt P13569, S549N); assay: YFP-halide influx assay for the CFTR-S549N
T5 construct: expressed in transfected cells
From the text: as §1, §2, §3, §4

[6] = molecular target: T6, CFTR-R117H (Homo sapiens, UniProt P13569, R117H); assay: YFP-halide influx assay for the CFTR-R117H
T6 construct: expressed in transfected cells
From the text: as §1, §2, §3, §4

T1 sequence (P13569 with tags, fused parts or gaps DEL508-508): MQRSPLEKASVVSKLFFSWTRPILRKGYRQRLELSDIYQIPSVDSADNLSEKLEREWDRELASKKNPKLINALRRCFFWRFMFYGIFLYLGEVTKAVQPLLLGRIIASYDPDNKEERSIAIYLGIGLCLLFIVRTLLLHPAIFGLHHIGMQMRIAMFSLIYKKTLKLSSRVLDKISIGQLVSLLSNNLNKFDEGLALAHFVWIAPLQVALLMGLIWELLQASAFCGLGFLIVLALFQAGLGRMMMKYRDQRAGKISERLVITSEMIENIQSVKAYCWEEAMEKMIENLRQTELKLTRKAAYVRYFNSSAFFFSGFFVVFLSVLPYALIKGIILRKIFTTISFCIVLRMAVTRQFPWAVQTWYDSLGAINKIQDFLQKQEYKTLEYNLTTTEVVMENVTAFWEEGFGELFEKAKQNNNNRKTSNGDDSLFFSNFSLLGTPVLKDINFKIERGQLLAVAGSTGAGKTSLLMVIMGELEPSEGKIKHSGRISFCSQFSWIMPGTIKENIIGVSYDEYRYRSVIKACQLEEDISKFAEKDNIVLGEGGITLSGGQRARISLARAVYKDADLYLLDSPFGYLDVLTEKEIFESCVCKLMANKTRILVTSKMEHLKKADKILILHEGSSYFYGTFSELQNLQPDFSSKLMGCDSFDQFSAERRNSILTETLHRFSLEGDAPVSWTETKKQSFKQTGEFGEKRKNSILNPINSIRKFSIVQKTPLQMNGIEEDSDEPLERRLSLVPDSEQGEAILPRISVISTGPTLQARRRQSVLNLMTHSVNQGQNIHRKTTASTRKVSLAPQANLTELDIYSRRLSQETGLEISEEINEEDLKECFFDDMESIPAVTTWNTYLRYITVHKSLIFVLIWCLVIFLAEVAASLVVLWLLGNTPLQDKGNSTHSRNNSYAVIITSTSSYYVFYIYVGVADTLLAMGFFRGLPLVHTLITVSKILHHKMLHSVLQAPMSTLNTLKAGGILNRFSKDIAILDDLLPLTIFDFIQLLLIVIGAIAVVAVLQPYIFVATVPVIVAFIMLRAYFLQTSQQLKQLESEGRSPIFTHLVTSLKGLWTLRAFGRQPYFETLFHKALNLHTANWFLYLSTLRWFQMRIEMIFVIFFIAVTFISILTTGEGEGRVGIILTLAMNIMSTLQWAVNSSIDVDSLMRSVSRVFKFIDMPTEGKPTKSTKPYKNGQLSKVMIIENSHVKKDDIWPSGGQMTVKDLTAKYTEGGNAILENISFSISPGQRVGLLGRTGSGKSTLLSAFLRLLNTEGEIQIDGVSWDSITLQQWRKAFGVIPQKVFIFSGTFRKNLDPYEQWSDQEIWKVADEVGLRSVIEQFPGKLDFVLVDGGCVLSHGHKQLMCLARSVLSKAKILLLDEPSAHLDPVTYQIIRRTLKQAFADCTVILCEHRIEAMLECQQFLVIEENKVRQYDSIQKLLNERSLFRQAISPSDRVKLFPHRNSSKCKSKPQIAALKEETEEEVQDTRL
T2 sequence (P13569 whole entry G551D): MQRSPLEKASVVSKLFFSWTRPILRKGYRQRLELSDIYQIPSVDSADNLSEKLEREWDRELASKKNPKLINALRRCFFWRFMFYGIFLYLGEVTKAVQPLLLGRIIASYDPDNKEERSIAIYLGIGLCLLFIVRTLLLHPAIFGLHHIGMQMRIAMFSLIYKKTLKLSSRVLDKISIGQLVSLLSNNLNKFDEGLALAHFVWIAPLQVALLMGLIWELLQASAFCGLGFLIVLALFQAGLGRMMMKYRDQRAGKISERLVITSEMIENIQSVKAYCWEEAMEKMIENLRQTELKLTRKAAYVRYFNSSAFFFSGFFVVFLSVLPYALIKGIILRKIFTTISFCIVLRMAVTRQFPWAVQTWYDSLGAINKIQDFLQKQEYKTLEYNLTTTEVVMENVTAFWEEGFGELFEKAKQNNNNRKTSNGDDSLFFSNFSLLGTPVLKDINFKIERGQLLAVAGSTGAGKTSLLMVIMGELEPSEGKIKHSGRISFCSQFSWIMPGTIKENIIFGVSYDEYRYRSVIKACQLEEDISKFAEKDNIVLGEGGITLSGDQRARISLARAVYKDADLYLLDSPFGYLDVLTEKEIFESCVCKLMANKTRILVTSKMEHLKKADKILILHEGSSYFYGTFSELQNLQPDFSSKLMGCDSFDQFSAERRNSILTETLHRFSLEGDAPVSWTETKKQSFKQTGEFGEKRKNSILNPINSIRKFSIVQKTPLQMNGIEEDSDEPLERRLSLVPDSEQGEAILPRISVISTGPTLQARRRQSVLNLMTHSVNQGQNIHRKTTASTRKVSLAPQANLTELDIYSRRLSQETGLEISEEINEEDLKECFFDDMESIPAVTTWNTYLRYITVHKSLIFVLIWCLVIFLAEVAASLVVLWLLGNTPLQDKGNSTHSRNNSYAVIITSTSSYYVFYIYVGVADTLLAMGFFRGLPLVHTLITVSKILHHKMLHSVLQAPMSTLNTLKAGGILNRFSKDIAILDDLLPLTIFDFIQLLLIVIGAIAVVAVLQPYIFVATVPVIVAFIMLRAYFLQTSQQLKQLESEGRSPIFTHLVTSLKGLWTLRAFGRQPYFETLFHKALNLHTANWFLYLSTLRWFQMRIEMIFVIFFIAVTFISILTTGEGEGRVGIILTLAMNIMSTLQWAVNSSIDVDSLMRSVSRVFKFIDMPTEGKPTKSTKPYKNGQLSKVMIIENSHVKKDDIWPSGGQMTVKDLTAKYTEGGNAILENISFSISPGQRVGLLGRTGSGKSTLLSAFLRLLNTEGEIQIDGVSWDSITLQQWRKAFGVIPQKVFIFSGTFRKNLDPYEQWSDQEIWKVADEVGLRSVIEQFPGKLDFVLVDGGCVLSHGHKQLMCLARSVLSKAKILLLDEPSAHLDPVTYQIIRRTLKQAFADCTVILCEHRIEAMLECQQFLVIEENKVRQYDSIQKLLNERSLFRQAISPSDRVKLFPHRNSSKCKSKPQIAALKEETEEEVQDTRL
T5 sequence (P13569 whole entry S549N): as the sequence (P13569 whole entry G551D) above, with S549N, D551G counted along it
T4 sequence (P13569 whole entry G1349D): as the sequence (P13569 whole entry G551D) above, with D551G, G1349D counted along it
T3 sequence (P13569 whole entry G178R): as the sequence (P13569 whole entry G551D) above, with G178R, D551G counted along it
T6 sequence (P13569 whole entry R117H): as the sequence (P13569 whole entry G551D) above, with R117H, D551G counted along it

Row | EC50 [1] [nM] | EC50 [2] [nM] | EC50 [3] [nM] | EC50 [4] [nM] | EC50 [5] [nM] | EC50 [6] [nM] | SMILES
1 | 61 | 4920 | 136 | 1040 | 861 | 488 | CC(C)(O)C(=O)Nc1sc(S(=O)(=O)c2ncccc2C(F)(F)F)cc1C(N)=O [Compound 411, 2-[(2-hydroxy-2-methyl-propanoyl)amino]-5-[[3-(trifluoromethyl)-2-pyridyl]sulfonyl] thiophene-3-carboxamide]
2 | 3.57 | 96.4 | 11.1 | 7.47 | 11.3 | 35.4 | CC(C)(O)C(=O)Nc1sc(S(=O)(=O)c2nc(C(F)(F)F)ccc2C(F)(F)F)cc1C(N)=O [Compound 412, 5-[[3,6-bis(trifluoromethyl)-2-pyridyl]sulfonyl]-2-[(2-hydroxy-2-methyl-propanoyl)amino] thiophene-3-carboxamide]
3 | 12.8 | 1480 | 44.7 | 134 | 64.7 | 71.1 | Cc1ccc(C(F)(F)F)c(S(=O)(=O)c2cc(C(N)=O)c(NC(=O)C(C)(C)O)s2)n1 [Compound 413, 2-[(2-hydroxy-2-methyl-propanoyl)amino]-5-[[6-methyl-3-(trifluoromethyl)-2-pyridyl]sulfonyl] thiophene-3-carboxamide]
4 | 17.7 | 773 | 268 | 353 | 1780 | 351 | COc1cc(C)cc(S(=O)(=O)c2cc(C(N)=O)c(NC(=O)C(C)(C)O)s2)c1 [Compound 416, 2-[(2-hydroxy-2-methyl-propanoyl)amino]-5-(3-methoxy-5-methyl-phenyl)sulfonyl-thiophene-3-carboxamide]
5 | 8.18 | 390 | 14.4 | 18.4 | 184 | 192 | COc1cc(S(=O)(=O)c2cc(C(N)=O)c(NC(=O)C(C)(C)O)s2)c(OC(F)F)cn1 [Compound 418, 5-[[5-(difluoromethoxy)-2-methoxy-4-pyridyl]sulfonyl]-2-[(2-hydroxy-2-methyl-propanoyl)amino] thiophene-3-carboxamide]
6 | 26.6 | 678 | 250 | 617 | 621 | 465 | COc1cc(C#N)cc(S(=O)(=O)c2cc(C(N)=O)c(NC(=O)C(C)(C)O)s2)c1OC(F)F [Compound 419, 5-[5-cyano-2-(difluoromethoxy)-3-methoxy-phenyl]sulfonyl-2-[(2-hydroxy-2-methyl-propanoyl)amino] thiophene-3-carboxamide]
7 | 8.05 | 197 | 110 | 95 | 146 | 97.2 | COc1ccc(C(F)(F)F)c(S(=O)(=O)c2cc(C(N)=O)c(NC(=O)C(C)(C)O)s2)n1 [Compound 420, 2-[(2-hydroxy-2-methyl-propanoyl)amino]-5-[[6-methoxy-3-(trifluoromethyl)-2-pyridyl]sulfonyl] thiophene-3-carboxamide]
8 | 69 | 5530 | 1590 | 1540 | 1110 | 1930 | CC(C)c1nn(C)cc1S(=O)(=O)c1cc(C(N)=O)c(NC(=O)C(C)(C)O)s1 [Compound 421, 2-[(2-hydroxy-2-methyl-propanoyl)amino]-5-(3-isopropyl-1-methyl-pyrazol-4-yl)sulfonyl-thiophene-3-carboxamide]
9 | 15.3 | 872 | 64.4 | 212 | 542 | 448 | CC(C)(O)C(=O)Nc1sc(S(=O)(=O)c2ccc(C(F)(F)F)c(F)c2)cc1C(N)=O [Compound 422, 5-[3-fluoro-4-(trifluoromethyl)phenyl]sulfonyl-2-[(2-hydroxy-2-methyl-propanoyl)amino] thiophene-3-carboxamide]
10 | 10.9 | 842 | 162 | 1110 | 1910 | 249 | CC(C)(O)C(=O)Nc1sc(S(=O)(=O)c2ccc(C(F)(F)F)c(Cl)n2)cc1C(N)=O [Compound 423, 5-[[6-chloro-5-(trifluoromethyl)-2-pyridyl]sulfonyl]-2-[(2-hydroxy-2-methyl-propanoyl)amino] thiophene-3-carboxamide]
11 | 3.19 | 403 | 178 | 2430 | 332 | 97.3 | CC(C)(O)C(=O)Nc1sc(S(=O)(=O)c2nc(Cl)ccc2C(F)(F)F)cc1C(N)=O [Compound 424, 5-[[6-chloro-3-(trifluoromethyl)-2-pyridyl]sulfonyl]-2-[(2-hydroxy-2-methyl-propanoyl)amino] thiophene-3-carboxamide]
12 | 6.9 | 762 | 1270 | 364 | 715 | 144 | CC(C)(O)C(=O)Nc1sc(S(=O)(=O)c2ccsc2C(F)(F)F)cc1C(N)=O [Compound 425, 2-[(2-hydroxy-2-methyl-propanoyl)amino]-5-[[2-(trifluoromethyl)-3-thienyl]sulfonyl] thiophene-3-carboxamide]
13 | 2.58 | 61.3 | 9.85 | 6.06 | 26.2 | 83.1 | CC(C)(O)C(=O)Nc1sc(S(=O)(=O)c2nc(C(C)(C)C)ccc2C(F)(F)F)cc1C(N)=O [Compound 426, 5-[[6-tert-butyl-3-(trifluoromethyl)-2-pyridyl]sulfonyl]-2-[(2-hydroxy-2-methyl-propanoyl)amino] thiophene-3-carboxamide]
14 | 42 | 2230 | 670 | 438 | 1020 | 1350 | CC(C)(O)C(=O)Nc1sc(S(=O)(=O)c2cccc(C(F)(F)F)n2)cc1C(N)=O [Compound 427, 2-[(2-hydroxy-2-methyl-propanoyl)amino]-5-[[6-(trifluoromethyl)-2-pyridyl]sulfonyl] thiophene-3-carboxamide]
15 | 17.5 | 936 | 142 | 229 | 507 | 208 | CC(C)(O)C(=O)Nc1sc(S(=O)(=O)c2cc(Cl)cc(C(F)(F)F)c2)cc1C(N)=O [Compound 429, 5-[3-chloro-5-(trifluoromethyl)phenyl]sulfonyl-2-[(2-hydroxy-2-methyl-propanoyl)amino] thiophene-3-carboxamide]
16 | 10.7 | 1500 | 283 | 3330 | 702 | 321 | Cc1cc(C(F)(F)F)cc(S(=O)(=O)c2cc(C(N)=O)c(NC(=O)C(C)(C)O)s2)c1 [Compound 430, 2-[(2-hydroxy-2-methyl-propanoyl)amino]-5-[3-methyl-5-(trifluoromethyl)phenyl] sulfonyl-thiophene-3-carboxamide]
17 | 47.9 | 5550 | 1110 | 3330 | 1480 | 359 | CC(C)(O)C(=O)Nc1sc(S(=O)(=O)c2cc(Cl)ncc2C#N)cc1C(N)=O [Compound 432, 5-[(2-chloro-5-cyano-4-pyridyl)sulfonyl]-2-[(2-hydroxy-2-methyl-propanoyl)amino] thiophene-3-carboxamide]
18 | 48.8 | 1300 | 217 | 3330 | 405 | 676 | CC(C)(O)C(=O)Nc1sc(S(=O)(=O)c2ccc(C(C)(C)C)cn2)cc1C(N)=O [Compound 433, 5-[(5-tert-butyl-2-pyridyl)sulfonyl]-2-[(2-hdyroxy-2-methyl-propanoyl)amino] thiophene-3-carboxamide]
